Measurements reported in ChEMBL document CHEMBL4257591 (J Med Chem, 2018).
≈ marks a conversion by molar mass, not a printed value. Calls of active or inactive are those of the source. The calls are words filed in the database; no cut-off is given here. Starred links: 1 amine or outer side, 2 acyl side, 3 side chain; linkers in the order of their positions; H or OH if unused. Positions of bridges follow the written chain, without caps; N, C: chain ends. Non-standard residues stand in square brackets, D forms with d. Residues, ends and D or L forms follow the SMILES beside them. *: point of attachment. X1 = NC(=O)C[C@@H](C(=O)[*:2])N(c1ccc2c(c1)C(=O)OC21c2ccc(O)cc2Oc2cc(O)ccc21)[*:1]; FITC = O=C1OC2(c3ccc(O)cc3Oc3cc(O)ccc32)c2ccc(NC(=S)*)cc21; Ahx = NCCCCCC(=O)O

How the values were obtained:
Enterococcus faecium = assay: Antimicrobial activity against vancomycin-resistant Enterococcus faecium ATCC 51559 after 18 hrs; assay type: functional; conditions: ATCC 51559, 18 h
Pseudomonas aeruginosa [1] = assay: Antimicrobial activity against Pseudomonas aeruginosa KCTC 1637 after 18 hrs; assay type: functional; conditions: KCTC 1637, 18 h
Pseudomonas aeruginosa [2] = assay: Antimicrobial activity against multidrug-resistant Pseudomonas aeruginosa CCARM 2095 after 18 hrs; assay type: functional; conditions: CCARM 2095, 18 h
[3] = test system: Staphylococcus epidermidis; assay: Antimicrobial activity against Staphylococcus epidermidis KCTC 1617 after 18 hrs; assay type: functional; conditions: KCTC 1617, 18 h
Escherichia coli [4] = assay: Induction of membrane permeabilization in Escherichia coli KCTC 1682 assessed as PI-positive cells at 12.5 uM after 1 to 2 hrs by propidium iodide-staining based flow cytometry (reference value: 2.36%); assay type: functional
Bacillus subtilis = assay: Antimicrobial activity against Bacillus subtilis KCTC 3068 after 18 hrs; assay type: functional; conditions: KCTC 3068, 18 h
Salmonella typhimurium = assay: Antimicrobial activity against Salmonella typhimurium KCTC 1926 after 18 hrs; assay type: functional, Salmonella enterica subsp. enterica serovar Typhimurium; conditions: Salmonella enterica, KCTC 1926, 18 h
[5] = Hemolytic activity in sheep RBC assessed as free hemoglobin level up to 256 uM by ELISA relative to control; assay type: ADME, cell-based, Ovis aries, Erythrocyte; conditions: sheep red blood cells (erythrocytes), read-out: Activity
Staphylococcus aureus [6] = assay: Induction of membrane permeabilization in Staphylococcus aureus KCTC 1621 at 2 to 8 times MIC concentration up to 300 secs by SYTOX green uptake assay; assay type: functional, organism-based
Escherichia coli [7] = assay: Antimicrobial activity against Escherichia coli KCTC 1682 after 18 hrs; assay type: functional; conditions: KCTC 1682, 18 h
Staphylococcus aureus [8] = assay: Bactericidal activity against Staphylococcus aureus KCTC 1621 at MIC concentration after 30 mins by time kill assay; assay type: functional, organism-based
Staphylococcus aureus [9] = assay: Antimicrobial activity against methicillin-resistant Staphylococcus aureus CCARM 3089 after 18 hrs; assay type: functional; conditions: CCARM 3089, 18 h
Staphylococcus aureus [10] = assay: Induction of cytoplasmic membrane depolarization in Staphylococcus aureus KCTC 1621 at 2 to 8 times MIC concentration by DiSC3(5)-dye based fluorescence spectrophotometry; assay type: functional, organism-based
RAW264.7 = assay: Cytotoxicity against mouse RAW264.7 cells at 512 uM after 48 hrs by MTT assay; assay type: cell-based; conditions: raw264.7, 48 h
Staphylococcus aureus [11] = assay: Antimicrobial activity against methicillin-resistant Staphylococcus aureus CCARM 3090 after 18 hrs; assay type: functional; conditions: CCARM 3090, 18 h
Staphylococcus aureus [12] = assay: Antimicrobial activity against methicillin-resistant Staphylococcus aureus CCARM 3095 after 18 hrs; assay type: functional; conditions: CCARM 3095, 18 h
Escherichia coli [13] = assay: Bactericidal activity against Escherichia coli KCTC 1682 at MIC concentration after 120 to 180 mins by time kill assay; assay type: functional, organism-based
Staphylococcus aureus [14] = assay: Antimicrobial activity against Staphylococcus aureus KCTC 1621 after 18 hrs; assay type: functional; conditions: KCTC 1621, 18 h
DNA = assay: Binding affinity to Escherichia coli pBR322 DNA assessed as inhibition of DNA migration at 16 uM after 1 hr by agarose gel electrophoresis and UV spectroscopy; assay type: nucleic-acid assay
Staphylococcus aureus [15] = assay: Drug penetration in Staphylococcus aureus KCTC 1621 at MIC concentration after 20 mins using FITC-labelled compounds by confocal laser-scanning microscopy; assay type: ADME, organism-based; conditions: in vivo
Escherichia coli [16] = assay: Antimicrobial activity against Escherichia coli KCTC 1682 after 18 hrs using FITC-labelled compound; assay type: functional
Staphylococcus aureus [17] = assay: Antimicrobial activity against Staphylococcus aureus KCTC 1621 after 18 hrs using FITC-labelled compound; assay type: functional
[18] = Drug uptake in Escherichia coli KCTC 1682 cytoplasm at 30 uM after 20 mins using FITC-labeled compound by confocal laser-scanning microscopy; assay type: ADME
Escherichia coli [19] = assay: Drug penetration in Escherichia coli KCTC 1682 at MIC concentration after 20 mins using FITC-labelled compounds by confocal laser-scanning microscopy; assay type: ADME, organism-based; conditions: in vivo
[20] = Drug uptake in Staphylococcus aureus KCTC 1621 cytoplasm at 30 uM after 20 mins using FITC-labeled compound by confocal laser-scanning microscopy; assay type: ADME
Escherichia coli [21] = assay: Induction of membrane permeabilization in Escherichia coli KCTC 1682 assessed as PI-positive cells at 16 uM after 1 to 2 hrs by propidium iodide-staining based flow cytometry (reference value: 2.36%); assay type: functional

CC[C@H](C)[C@H](NC(=O)[C@@H](NC(=O)[C@H](Cc1cnc[nH]1)NC(=O)[C@H](CCCNC(=N)N)NC(=O)[C@H](C)NC(=O)[C@H](CCCNC(=N)N)NC(=O)[C@H](CC(C)C)NC(=O)[C@H](CO)NC(=O)[C@H](C)NC(=O)[C@H](CO)NC(=O)[C@H](CC(C)C)NC(=O)[C@@H](N)CC(N)=O)[C@@H](C)O)C(=O)N1CCC[C@H]1C(=O)N[C@@H](CCC(N)=O)C(=O)N[C@@H](CO)C(=O)N[C@@H](CCCNC(=N)N)C(=O)N[C@@H](CCCCN)C(=O)N[C@@H](Cc1ccccc1)C(=O)NCC(=O)N[C@@H](CCCNC(=N)N)C(=O)N[C@@H](CCCNC(=N)N)C(N)=O (H-NLSASLRARHTIPQSRKFGRR-NH2)
MIC (Enterococcus faecium): 50 µM (≈ 123 µg/mL) | MIC (Pseudomonas aeruginosa [1]): 6.3 µM (≈ 15.4 µg/mL) | MIC (Pseudomonas aeruginosa [2]): 12.5 µM (≈ 30.6 µg/mL) | MIC [3]: 6.3 µM (≈ 15.4 µg/mL) | Activity (Escherichia coli [4]): 3.66% | MIC (Bacillus subtilis): 12.5 µM (≈ 30.6 µg/mL) | MIC (Salmonella typhimurium): 6.3 µM (≈ 15.4 µg/mL) | hemolysis [5]: < 1% | Activity (Staphylococcus aureus [6]): inactive | MIC (Escherichia coli [7]): 6.3 µM (≈ 15.4 µg/mL) | Activity (Staphylococcus aureus [8]): Active | MIC (Staphylococcus aureus [9]): 25 µM (≈ 61.3 µg/mL) | Activity (Staphylococcus aureus [10]): inactive | Activity (RAW264.7): Non-Toxic | MIC (Staphylococcus aureus [11]): 50 µM (≈ 123 µg/mL) | MIC (Staphylococcus aureus [12]): 25 µM (≈ 61.3 µg/mL) | Activity (Escherichia coli [13]): Active | MIC (Staphylococcus aureus [14]): 12.5 µM (≈ 30.6 µg/mL) | Activity (DNA): Active

CC[C@H](C)[C@H](NC(=O)[C@@H](NC(=O)[C@H](Cc1cnc[nH]1)NC(=O)[C@H](CCCNC(=N)N)NC(=O)[C@H](C)NC(=O)[C@H](CCCNC(=N)N)NC(=O)[C@H](CC(C)C)NC(=O)[C@H](CO)NC(=O)[C@H](C)NC(=O)[C@H](CO)NC(=O)[C@H](CC(C)C)NC(=O)[C@H](CC(N)=O)Nc1ccc2c(c1)C(=O)OC21c2ccc(O)cc2Oc2cc(O)ccc21)[C@@H](C)O)C(=O)N1CCC[C@H]1C(=O)N[C@@H](CCC(N)=O)C(=O)N[C@@H](CO)C(=O)N[C@@H](CCCNC(=N)N)C(=O)N[C@@H](CCCCN)C(=O)N[C@@H](Cc1ccccc1)C(=O)NCC(=O)N[C@@H](CCCNC(=N)N)C(=O)N[C@@H](CCCNC(=N)N)C(N)=O (H-[X1]LSASLRARHTIPQSRKFGRR-NH2)
Drug uptake (Staphylococcus aureus [15]): Active | Activity (Escherichia coli [16]): Active | Activity (Staphylococcus aureus [17]): Active | Drug uptake [18]: Active | Drug uptake (Escherichia coli [19]): Active | Drug uptake [20]: Active

CC[C@H](C)[C@@H]1NC(=O)[C@H]([C@@H](C)O)NC(=O)[C@H](Cc2cnc[nH]2)NC(=O)[C@H](CCCNC(=N)N)NC(=O)[C@H](C)NC(=O)[C@H](CCCNC(=N)N)NC(=O)[C@H](CC(C)C)NC(=O)[C@H](CO)NC(=O)[C@H](C)NC(=O)[C@@H](NC(=O)[C@H](CC(C)C)NC(=O)[C@H](CC(N)=O)NC(=O)CCCCCNC(=S)Nc2ccc3c(c2)C(=O)OC32c3ccc(O)cc3Oc3cc(O)ccc32)CSSC[C@@H](C(=O)N[C@@H](CCCNC(=N)N)C(=O)N[C@@H](CCCCN)C(=O)N[C@@H](Cc2ccccc2)C(=O)NCC(=O)N[C@@H](CCCNC(=N)N)C(=O)N[C@@H](CCCNC(=N)N)C(N)=O)NC(=O)[C@H](CCC(N)=O)NC(=O)[C@@H]2CCCN2C1=O ({FITC-Ahx}-NLCASLRARHTIPQCRKFGRR-NH2; disulfide 3-15)
MIC (Escherichia coli [16]; KCTC 1682, 18 h): 12.5 µM (≈ 37.3 µg/mL) | MIC (Staphylococcus aureus [17]; KCTC 1621, 18 h): 12.5 µM (≈ 37.3 µg/mL) | Drug uptake [18]: Active | Drug uptake [20]: Active

CC[C@H](C)[C@H](NC(=O)[C@H](CCCCN)NC(=O)[C@H](CCC(=O)O)NC(=O)[C@H](CCCCN)NC(=O)[C@H](CO)NC(=O)[C@H](CCCCN)NC(=O)[C@H](CCCNC(=N)N)NC(=O)[C@H](Cc1ccccc1)NC(=O)[C@H](Cc1ccccc1)NC(=O)[C@H](CC(=O)O)NC(=O)CNC(=O)[C@H](CC(C)C)NC(=O)[C@@H](N)CC(C)C)C(=O)NCC(=O)N[C@@H](CCCCN)C(=O)N[C@@H](CCC(=O)O)C(=O)N[C@@H](Cc1ccccc1)C(=O)N[C@@H](CCCCN)C(=O)N[C@@H](CCCNC(=N)N)C(=O)N[C@H](C(=O)N[C@H](C(=O)N[C@@H](CCC(N)=O)C(=O)N[C@@H](CCCNC(=N)N)C(=O)N[C@H](C(=O)N[C@@H](CCCCN)C(=O)N[C@@H](CC(=O)O)C(=O)N[C@@H](Cc1ccccc1)C(=O)N[C@@H](CC(C)C)C(=O)N[C@@H](CCCNC(=N)N)C(=O)N[C@@H](CC(N)=O)C(=O)N[C@@H](CC(C)C)C(=O)N[C@H](C(=O)N1CCC[C@H]1C(=O)N[C@@H](CCCNC(=N)N)C(=O)N[C@H](C(=O)N[C@@H](CCC(=O)O)C(=O)N[C@@H](CO)C(=O)O)[C@@H](C)O)C(C)C)[C@@H](C)CC)C(C)C)[C@@H](C)CC [CATHELICIDIN]
Activity (Escherichia coli [21]): 75.38%
